Target: T1, TrkA kinase (Homo sapiens, UniProt P04629)
T1 construct: purchased Upstate, USA
Assay: In vitro TrkA inhibitory activity using TR-FRET assay
Assay type: biochemical
Details: 5 ng TrkA, 500 μM ATP, values given as bins, read-out: TrkA inhibition in-vitro IC50
Protocol: Compounds were screened in the TR-FRET assay with TrkA kinase. 5 ng of TrkA [Upstate, USA] kinase was used for assay. The compound was incubated with the kinase for 30 minutes at 20-35° C. After the incubation, substrate mix [40 nM Ultra light poly GT (Perkin Elmer, USA) and 500 μM ATP] was added. The above reaction was stopped by the addition of 40 mM EDTA after 30 minutes. The Eu-labelled antiphospho-tyrosine antibody [Perkin Elmer, USA] was added at 0.5 nM and the fluorescence emission at 615 nm/665 nm [excitation at 340 nm] was measured. The compounds were initially screened at 100 nM, 1 μM and 10 μM concentrations. The potent compounds with >25% inhibition at 1 μM of TrkA were taken for the full dose response studies. The final DMSO concentration in the assay was […]. For IC50 determination, ⅓^rd serial dilution was made from the 20 mM DMSO stock solution. 2 μl of these were transferred to the test wells containing 20 μl reaction mixture [Total reaction volume 22 μl]. The fluorescence was measured in Perkin Elmer Wallac 1420 Multilabel Counter Victor 3. The IC50 was determined by fitting the dose response data to a sigmoidal curve fitting equation using GraphPad Prism software version 5.

T1 sequence (P04629 33-796): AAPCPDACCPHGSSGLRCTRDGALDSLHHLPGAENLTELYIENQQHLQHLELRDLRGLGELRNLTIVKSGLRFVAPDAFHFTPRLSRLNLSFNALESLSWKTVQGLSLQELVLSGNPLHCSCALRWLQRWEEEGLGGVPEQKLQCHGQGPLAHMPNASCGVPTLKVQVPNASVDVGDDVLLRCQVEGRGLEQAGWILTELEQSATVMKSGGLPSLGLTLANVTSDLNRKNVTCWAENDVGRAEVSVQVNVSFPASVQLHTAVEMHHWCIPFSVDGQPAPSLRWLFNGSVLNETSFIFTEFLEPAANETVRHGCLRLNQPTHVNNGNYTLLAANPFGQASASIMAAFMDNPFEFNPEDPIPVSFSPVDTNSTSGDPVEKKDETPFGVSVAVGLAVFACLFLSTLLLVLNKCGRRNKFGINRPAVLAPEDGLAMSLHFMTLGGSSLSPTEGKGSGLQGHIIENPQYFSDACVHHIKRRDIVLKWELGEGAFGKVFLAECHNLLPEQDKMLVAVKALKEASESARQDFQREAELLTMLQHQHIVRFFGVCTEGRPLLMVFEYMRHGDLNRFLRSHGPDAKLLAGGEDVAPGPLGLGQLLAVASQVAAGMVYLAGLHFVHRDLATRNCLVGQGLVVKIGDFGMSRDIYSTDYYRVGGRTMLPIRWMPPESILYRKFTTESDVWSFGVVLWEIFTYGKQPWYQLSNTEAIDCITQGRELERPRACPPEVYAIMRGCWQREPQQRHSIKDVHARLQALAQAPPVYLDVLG

Structure (SMILES) | IC50 [nM]
CCN(CCF)S(=O)(=O)NC(=O)c1cnc2ccc(N3CCC[C@@H]3c3cc(F)ccc3F)cn12 [Example 40, (R)-6-(2-(2,5-difluorophenyl)pyrrolidin-1-yl)-N-(N-ethyl-N-(2-fluoroethyl)sulfamoyl)imidazo[1,2-a]pyridine-3-carboxamide] | 50 to 100
CN(CC(F)(F)F)S(=O)(=O)NC(=O)c1cnc2ccc(N3CCC[C@@H]3c3cc(F)ccc3F)cn12 [Example 41, (R)-6-(2-(2,5-difluorophenyl)pyrrolidin-1-yl)-N-(N-methyl-N-(2,2,2-trifluoroethyl)sulfamoyl)imidazo[1,2-a]pyridine-3-carboxamide] | ≤ 50
CN(CC(C)(C)F)S(=O)(=O)NC(=O)c1cnc2ccc(N3CCC[C@@H]3c3cc(F)ccc3F)cn12 [Example 42, (R)-6-(2-(2,5-difluorophenyl)pyrrolidin-1-yl)-N-(N-(2-fluoro-2-methylpropyl)-N-methylsulfamoyl)imidazo[1,2-a] pyridine-3-carboxamide] | ≤ 50
CN(c1cccnc1)S(=O)(=O)NC(=O)c1cnc2ccc(N3CCC[C@@H]3c3cc(F)ccc3F)cn12 [Example 43, (R)-6-(2-(2,5-difluorophenyl)pyrrolidin-1-yl)-N-(N-methyl-N-(pyridin-3-yl)sulfamoyl)imidazo[1,2-a]pyridine-3-carboxamide] | ≤ 50
O=C(NS(=O)(=O)N(CC1CC1)c1cccnc1)c1cnc2ccc(N3CCC[C@@H]3c3cc(F)ccc3F)cn12 [Example 44, (R)-N-(N-(cyclopropylmethyl)-N-(pyridin-3-yl)sulfamoyl)-6-(2-(2,5-difluorophenyl)pyrrolidin-1-yl)imidazo[1,2-a]pyridine-3-carboxamide] | 50 to 100
CN(c1cnccn1)S(=O)(=O)NC(=O)c1cnc2ccc(N3CCC[C@@H]3c3cc(F)ccc3F)cn12 [Example 45, (R)-6-(2-(2,5-difluorophenyl)pyrrolidin-1-yl)-N-(N-methyl-N-(pyrazin-2-yl)sulfamoyl)imidazo[1,2-a]pyridine-3-carboxamide] | ≤ 50
O=C(NS(=O)(=O)c1ccc(-n2ccnc2)nc1)c1cnc2ccc(N3CCC[C@@H]3c3cc(F)ccc3F)cn12 [Example 46, (R)-N-((6-(1H-imidazol-1-yl)pyridin-3-yl)sulfonyl)-6-(2-(2,5-difluorophenyl)pyrrolidin-1-yl)imidazo[1,2-a]pyridine-3-carboxamide] | 50 to 100
CN(c1ccccn1)S(=O)(=O)NC(=O)c1cnc2ccc(N3CCC[C@@H]3c3cc(F)ccc3F)cn12 [Example 47, (R)-6-(2-(2,5-difluorophenyl)pyrrolidin-1-yl)-N-(N-methyl-N-(pyridin-2-yl)sulfamoyl)imidazo[1,2-a]pyridine-3-carboxamide] | ≤ 50
CN(c1nccs1)S(=O)(=O)NC(=O)c1cnc2ccc(N3CCC[C@@H]3c3cc(F)ccc3F)cn12 [Example 48, (R)-6-(2-(2,5-difluorophenyl)pyrrolidin-1-yl)-N-(N-methyl-N-(thiazol-2-yl)sulfamoyl)imidazo[1,2-a]pyridine-3-carboxamide] | ≤ 50
CC1(S(=O)(=O)NC(=O)c2cnc3ccc(N4CCCC4c4cc(F)cc5c4OCCO5)cn23)CC1 (stereo not drawn) [Example 50, 6-(2-(7-fluoro-2,3-dihydrobenzo[b][1,4]dioxin-5-yl)pyrrolidin-1-yl)-N-((1-methylcyclopropyl)sulfonyl)imidazo[1,2-a]pyridine-3-carboxamide] | 100 to 500

Same assay, conditions: 5 ng TrkA, 500 μM ATP, values given as bins, read-out: TrkA inhibitory activity in-vitro IC50

Structure (SMILES) | IC50 [nM]
O=C(NS(=O)(=O)c1ccc(N2CC[C@H](O)C2)cc1)c1cnc2ccc(N3CCCCC3c3cc(F)ccc3F)cn12 (stereo partly drawn) [Example 49, 6-(2-(2,5-difluorophenyl)piperidin-1-yl)-N-((4-((S)-3-hydroxypyrrolidin-1-yl)phenyl)sulfonyl)imidazo[1,2-a]pyridine-3-carboxamide] | 1000 to 10000
O=C(NS(=O)(=O)c1ccc(N2CC[C@H](O)C2)nc1)c1cnc2ccc(N3CCCCC3c3cc(F)ccc3F)cn12 (stereo partly drawn) [Example 51, 6-(2-(2,5-difluorophenyl)piperidin-1-yl)-N-((6-((S)-3-hydroxypyrrolidin-1-yl)pyridin-3-yl)sulfonyl)imidazo[1,2-a]pyridine-3-carboxamide] | 1000 to 10000
